Structures can show the parent of a compound that is named as a salt.

For one assay, the target named is T1, dopamine D2 receptor (Rattus norvegicus, UniProt P61169).
T1 construct: Striata from rats (Sprague Dawley, Charles River) were homogenized immediately after removal; from tissue; host or cells: rat striatum (Sprague Dawley, Charles River), membranes
T1 sequence (P61169 whole entry): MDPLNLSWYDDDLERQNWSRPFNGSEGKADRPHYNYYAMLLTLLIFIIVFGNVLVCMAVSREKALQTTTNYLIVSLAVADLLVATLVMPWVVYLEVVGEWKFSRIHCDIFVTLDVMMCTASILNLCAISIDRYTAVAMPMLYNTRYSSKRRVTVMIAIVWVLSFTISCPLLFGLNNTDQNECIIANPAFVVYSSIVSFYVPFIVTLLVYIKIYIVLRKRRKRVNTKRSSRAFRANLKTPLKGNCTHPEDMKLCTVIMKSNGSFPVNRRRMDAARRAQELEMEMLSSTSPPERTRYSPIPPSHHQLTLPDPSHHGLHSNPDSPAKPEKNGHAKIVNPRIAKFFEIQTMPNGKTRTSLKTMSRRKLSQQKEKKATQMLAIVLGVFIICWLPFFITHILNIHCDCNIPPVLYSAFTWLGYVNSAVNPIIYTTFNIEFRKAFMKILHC
As to the kind of experiment: Receptor binding assay: affinity for the dopamine D2 receptor (3H-ADTN displacement, rat striatal membranes). Further details: species or system rat (Sprague Dawley).
Conditions: not given
Here is the method: The effects of the novel compounds can be shown in the receptor binding assay as follows:
Striata from rats (Sprague Dawley, Charles River) were homogenized immediately after removal in 0.32M sucrose solution (0° C.). The homogenate was filtered through gauze, the filtrate was centrifuged at 1000 xg (5 min at 4° C.) and the resulting supernatant was centrifuged at 40000 xg (4° C., 10 min). The residue (membranes) was taken up in incubation buffer (50 mM tris-HCl, 1 mM MgCl2 and 0.1% ascorbic acid, pH 7.4) and incubated at 37° C. for 20 min. The residue was subsequently washed 2×with incubation buffer by resuspension and recentrifugation. The membranes were frozen in portions in liquid nitrogen.
The assay mixtures (1 ml) were composed of membranes (380 μg of protein), 1 nM ^3 H-ADTN (NEN, Dreieich Germany, specific radioactivity 1.4 TBq/mmol) and 0.1 μM SCH 23390 (total binding) or a) with the addition of 50 nM spiperone (non-specific binding) or b) with-test substance. The mixtures were prepared in triplicate.
After the incubation (40 min at 25° C.) the mixtures were filtered through glass fiber filters (Whatman GF/B) and briefly washed with ice-cold washing buffer (Tris-HCl pH 7.4). The radioactivity retained on the filters was determined by liquid scintillation counting. The non-specific binding comprised about 40-50% of the total binding.
The evaluation of the competition plots and the determination of the dissociation constant took place by iterative non-linear regression analysis based on the "ligand" program (Muson and Rodbard: Anal. Biochem. 107 (1980) 220).
`Cc1[nH]c(=O)sc1CCCN1CC=C(c2ccccc2)CC1` [Example 1, 4-Methyl-5-[3-(1,2,3,6-tetrahydro-4-phenylpyridyl)propyl]-thiazolin-2-one hydrochloride] returned a Ki of 8 nM.

The assay is the same for the next values; noted with them: rat striatal membranes (380 μg protein), 1 nM 3H-ADTN, 0.1 μM SCH 23390, 40 min at 25° C., non-specific: 50 nM spiperone; read-out: Affinity of the test substances for the dopamine D2 receptor, Ki.
In the case of `Cc1c(CCCN2CCN(c3ccccc3)CC2)sc(=O)n1C` [Example 17, 3,4-Dimethyl-5-[3-(4-phenylpiperazinyl)propyl]thiazolin-2-one dihydrochloride], the Ki is 40 nM.
In the case of `Cc1[nH]c(=O)sc1CCCN1CCN(c2cccc(C(F)(F)F)c2)CC1` [Example 13, 4-Methyl-5-[3-(4-(3-trifluoromethylphenyl)piperazinyl)propyl]thiazolin-2-one hydrochloride], the Ki is 45 nM.
With `CCc1ccccc1N1CCN(CCCc2sc(=O)[nH]c2C)CC1` [Example 10, 4-Methyl-5-[3-(4-(2-ethylphenyl)piperazinyl)propyl]thiazolin-2-one dihydrochloride], the Ki turned out to be 25 nM.
With `CCOc1ccccc1N1CCN(CCCc2sc(=O)[nH]c2C)CC1` [Example 14, 4-Methyl-5-[3-(4-(2-ethoxyphenyl)piperazinyl)propyl]thiazolin-2-one dihydrochloride], the Ki was found to be 6 nM.
Consider `Cc1[nH]c(=O)sc1CCCN1CCN(c2ncccn2)CC1` [Example 7, 4-Methyl-5-[3-(4-pyrimidin-2-ylpiperazinyl)propyl]thiazolin-2-one dihydrochloride], for which the Ki amounted to 12 nM.
`Cc1[nH]c(=O)sc1CCCN1CCN(c2ccccn2)CC1` [Example 2, 4-Methyl-5-[3-(4-pyrid-2-ylpiperazinyl)propyl]thiazolin-2-one dihydrochloride]: the Ki was determined as 15 nM.
Same read-out and setting: the value for `CSc1ccccc1N1CCN(CCCc2sc(=O)[nH]c2C)CC1` [Example 12, 4-Methyl-5-[3-(4-(2-methylthiophenyl)piperazinyl)propyl]thiazolin-2-onehydrochloride] was 6 nM.
